# Test results as given in PubChem BioAssay (NCI).
#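 Step 1: Grow cells in 96-well plates. Step 2: Expose to compound for 48 hours at 5 concentrations. Step 3: Interpolate endpoints linearly; if unreached, use highest concentration. The concentration for 50% growth inhibition is given as GI50. TGI denotes the concentration required for complete inhibition of growth.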
# How the values were obtained:
# Test in all cases: DTP human tumour cell line panel, 48 h
# [1] = system: SW-620 colon
# [2] = system: ACHN renal
# [3] = system: U251 CNS
# [4] = system: UO-31 renal
# [5] = system: HL-60(TB) leukemia
# [6] = system: MALME-3M melanoma
# [7] = system: NCI-H460 lung
# [8] = system: OVCAR-4 ovarian
# [9] = system: MOLT-4 leukemia
# [10] = system: RPMI-8226 leukemia
# [11] = system: HCT-116 colon
# [12] = system: HOP-62 NSCLC
# [13] = system: NCI-H23 lung
# [14] = system: 786-0 renal
# [15] = system: UACC-257 melanoma
# [16] = system: SR leukemia
# [17] = system: SNB-75 CNS
# [18] = system: HCC-2998 colon
# [19] = system: NCI-H226 lung
# [20] = system: OVCAR-8 ovarian
# [21] = system: UACC-62 melanoma
# [22] = system: COLO 205 colon
# [23] = system: MCF7 breast
# [24] = system: HCT-15 colon
# [25] = system: MDA-MB-435
# [26] = system: DU-145 prostate
# [27] = system: SK-MEL-2 melanoma
# [28] = system: HOP-92 NSCLC
# [29] = system: EKVX NSCLC
# [30] = system: CCRF-CEM leukemia
# [31] = system: A498 renal
# [32] = system: LOX IMVI melanoma
# [33] = system: SK-OV-3 ovarian
# [34] = system: RXF 393 renal
# [35] = system: M14 melanoma
# [36] = system: IGROV1 ovarian
# [37] = system: SK-MEL-5 melanoma
# [38] = system: HT29 colon
# [39] = system: BT-549 breast
# [40] = system: HS 578T breast
# [41] = system: PC-3 prostate
# [42] = system: CAKI-1 renal
# [43] = system: TK-10 renal
# [44] = system: NCI-H522 lung
# [45] = system: MDA-MB-231 breast
# [46] = system: OVCAR-3 ovarian
# [47] = system: KM12 colon
# [48] = system: A549 NSCLC
# [49] = system: NCI/ADR-RES ovarian
# [50] = system: SF-268 CNS
# [51] = system: SK-MEL-28 melanoma
# [52] = system: K-562 leukemia
# [53] = system: SF-539 CNS
# [54] = system: SNB-19 CNS
# [55] = system: SN12C renal
# [56] = system: SF-295 CNS
# [57] = system: T-47D breast
# [58] = system: OVCAR-5 ovarian
compound,measurement,setting,value
Cc1cccc2c3c(sc12)C(c1ccc(F)cc1)C(C#N)=C(/N=C/c1ccc(Cl)cc1)O3 (configuration not stated),GI50,[1],0.383 µM
same,TGI,[1],13.1 µM
same,GI50,[2],0.695 µM
same,TGI,[2],15.5 µM
same,GI50,[3],0.423 µM
same,TGI,[3],8.76 µM
same,GI50,[4],0.572 µM
same,TGI,[4],15.3 µM
same,GI50,[5],0.339 µM
same,TGI,[5],0.971 µM
same,GI50,[6],0.72 µM
same,TGI,[6],23.2 µM
same,GI50,[7],0.348 µM
same,TGI,[7],3.56 µM
same,GI50,[8],2.27 µM
same,TGI,[8],20.1 µM
same,GI50,[9],0.476 µM
same,TGI,[9],14.2 µM
same,GI50,[10],0.421 µM
same,TGI,[10],7.69 µM
same,GI50,[11],0.384 µM
same,TGI,[11],6.3 µM
same,GI50,[12],0.552 µM
same,TGI,[12],15.1 µM
same,GI50,[13],0.536 µM
same,TGI,[13],16.4 µM
same,GI50,[14],0.601 µM
same,TGI,[14],12.5 µM
same,GI50,[15],3.81 µM
same,TGI,[15],32.2 µM
same,GI50,[16],0.317 µM
same,TGI,[16],13.2 µM
same,GI50,[17],0.275 µM
same,TGI,[17],3.63 µM
same,GI50,[18],0.414 µM
same,TGI,[18],2.47 µM
same,GI50,[19],0.434 µM
same,TGI,[19],2.96 µM
same,GI50,[20],0.487 µM
same,TGI,[20],4.18 µM
same,GI50,[21],0.354 µM
same,TGI,[21],13.4 µM
same,GI50,[22],0.648 µM
same,TGI,[22],2.51 µM
same,GI50,[23],0.322 µM
same,TGI,[23],14 µM
same,GI50,[24],0.366 µM
same,TGI,[24],10.3 µM
same,GI50,[25],0.175 µM
same,TGI,[25],0.373 µM
same,GI50,[26],0.485 µM
same,TGI,[26],19.3 µM
same,GI50,[27],0.317 µM
same,TGI,[27],17.8 µM
same,GI50,[28],2.19 µM
same,TGI,[28],15.8 µM
same,GI50,[29],1.72 µM
same,TGI,[29],46.1 µM
same,GI50,[30],0.404 µM
same,TGI,[30],> 37.3 µM
same,GI50,[31],10.6 µM
same,TGI,[31],42 µM
same,GI50,[32],0.555 µM
same,TGI,[32],6.3 µM
same,GI50,[33],0.521 µM
same,TGI,[33],41.9 µM
same,GI50,[34],0.222 µM
same,TGI,[34],0.664 µM
same,GI50,[35],0.31 µM
same,TGI,[35],8.38 µM
same,GI50,[36],0.632 µM
same,TGI,[36],19.2 µM
same,GI50,[37],0.488 µM
same,TGI,[37],3.29 µM
same,GI50,[38],0.532 µM
same,TGI,[38],5.04 µM
same,GI50,[39],0.907 µM
same,TGI,[39],3.56 µM
same,GI50,[40],0.426 µM
same,TGI,[40],10.3 µM
same,GI50,[41],0.415 µM
same,TGI,[41],13.5 µM
same,GI50,[42],0.389 µM
same,TGI,[42],15.2 µM
same,GI50,[43],20.1 µM
same,TGI,[43],66.2 µM
same,GI50,[44],0.0913 µM
same,TGI,[44],0.372 µM
same,GI50,[45],0.7 µM
same,TGI,[45],14.8 µM
same,GI50,[46],0.395 µM
same,TGI,[46],5.39 µM
same,GI50,[47],0.417 µM
same,TGI,[47],13.2 µM
same,GI50,[48],0.67 µM
same,TGI,[48],> 100 µM
same,GI50,[49],0.302 µM
same,TGI,[49],3.49 µM
same,GI50,[50],1.83 µM
same,TGI,[50],16.2 µM
same,GI50,[51],1.43 µM
same,TGI,[51],22.6 µM
same,GI50,[52],0.31 µM
same,TGI,[52],14.2 µM
same,GI50,[53],0.277 µM
same,TGI,[53],0.827 µM
same,GI50,[54],0.552 µM
same,TGI,[54],19 µM
same,GI50,[55],0.597 µM
same,TGI,[55],12.2 µM
same,GI50,[56],0.339 µM
same,TGI,[56],11.6 µM
same,GI50,[57],0.583 µM
same,TGI,[57],53 µM
same,GI50,[58],0.516 µM
same,TGI,[58],15.4 µM
O=C(NNc1nc2cc(F)cc(F)c2n2cccc12)c1ccncn1,GI50,[1],> 30 µM
same,TGI,[1],> 30 µM
same,GI50,[2],> 30 µM
same,TGI,[2],> 30 µM
same,GI50,[3],> 30 µM
same,TGI,[3],> 30 µM
same,GI50,[4],> 30 µM
same,TGI,[4],> 30 µM
same,GI50,[5],> 30 µM
same,TGI,[5],> 30 µM
same,GI50,[6],> 30 µM
same,TGI,[6],> 30 µM
same,GI50,[7],> 30 µM
same,TGI,[7],> 30 µM
same,GI50,[8],> 30 µM
same,TGI,[8],> 30 µM
same,GI50,[9],> 30 µM
same,TGI,[9],> 30 µM
same,GI50,[10],> 30 µM
same,TGI,[10],> 30 µM
same,GI50,[11],> 30 µM
same,TGI,[11],> 30 µM
same,GI50,[12],> 30 µM
same,TGI,[12],> 30 µM
same,GI50,[13],> 30 µM
same,TGI,[13],> 30 µM
same,GI50,[14],> 30 µM
same,TGI,[14],> 30 µM
same,GI50,[15],> 30 µM
same,TGI,[15],> 30 µM
same,GI50,[16],> 30 µM
same,TGI,[16],> 30 µM
same,GI50,[17],> 30 µM
same,TGI,[17],> 30 µM
same,GI50,[18],> 30 µM
same,TGI,[18],> 30 µM
same,GI50,[19],> 30 µM
same,TGI,[19],> 30 µM
same,GI50,[20],> 30 µM
same,TGI,[20],> 30 µM
same,GI50,[21],> 30 µM
same,TGI,[21],> 30 µM
same,GI50,[22],> 30 µM
same,TGI,[22],> 30 µM
same,GI50,[23],> 30 µM
same,TGI,[23],> 30 µM
same,GI50,[24],> 30 µM
same,TGI,[24],> 30 µM
same,GI50,[25],> 30 µM
same,TGI,[25],> 30 µM
same,GI50,[26],> 30 µM
same,TGI,[26],> 30 µM
same,GI50,[27],> 30 µM
same,TGI,[27],> 30 µM
same,GI50,[28],> 30 µM
same,TGI,[28],> 30 µM
same,GI50,[29],> 30 µM
same,TGI,[29],> 30 µM
same,GI50,[30],> 30 µM
same,TGI,[30],> 30 µM
same,GI50,[31],> 30 µM
same,TGI,[31],> 30 µM
same,GI50,[32],> 30 µM
same,TGI,[32],> 30 µM
same,GI50,[33],> 30 µM
same,TGI,[33],> 30 µM
same,GI50,[34],> 30 µM
same,TGI,[34],> 30 µM
same,GI50,[35],> 30 µM
same,TGI,[35],> 30 µM
same,GI50,[36],> 30 µM
same,TGI,[36],> 30 µM
same,GI50,[37],> 30 µM
same,TGI,[37],> 30 µM
same,GI50,[38],> 30 µM
same,TGI,[38],> 30 µM
same,GI50,[39],> 30 µM
same,TGI,[39],> 30 µM
same,GI50,[40],> 30 µM
same,TGI,[40],> 30 µM
same,GI50,[41],> 30 µM
same,TGI,[41],> 30 µM
same,GI50,[42],> 30 µM
same,TGI,[42],> 30 µM
same,GI50,[43],> 30 µM
same,TGI,[43],> 30 µM
same,GI50,[44],> 30 µM
same,TGI,[44],> 30 µM
same,GI50,[45],> 30 µM
same,TGI,[45],> 30 µM
same,GI50,[46],> 30 µM
same,TGI,[46],> 30 µM
same,GI50,[47],> 30 µM
same,TGI,[47],> 30 µM
same,GI50,[48],> 30 µM
same,TGI,[48],> 30 µM
same,GI50,[49],> 30 µM
same,TGI,[49],> 30 µM
same,GI50,[50],> 30 µM
same,TGI,[50],> 30 µM
same,GI50,[51],> 30 µM
same,TGI,[51],> 30 µM
same,GI50,[52],> 30 µM
same,TGI,[52],> 30 µM
same,GI50,[53],> 30 µM
same,TGI,[53],> 30 µM
same,GI50,[54],> 30 µM
same,TGI,[54],> 30 µM
same,GI50,[55],> 30 µM
same,TGI,[55],> 30 µM
same,GI50,[56],> 30 µM
same,TGI,[56],> 30 µM
same,GI50,[57],> 30 µM
same,TGI,[57],> 30 µM
same,GI50,[58],> 30 µM
same,TGI,[58],> 30 µM
